Laboratory results published in ChEMBL document CHEMBL5537135, “Novel antimicrobial peptides modified with fluorinated sulfono-γ-AA having high stability and targeting multidrug-resistant bacteria infections” (Eur J Med Chem, 2024).
Converted amounts (≈) assume the structure as drawn. The source made the active and inactive calls. No cut-off for these calls is given here.

Tests used:
[1] = tested on: Pseudomonas aeruginosa; assay: Antimicrobial activity against multidrug-resistant Pseudomonas aeruginosa 157 assessed as inhibition of visible bacterial growth incubated for 18 hrs by broth-dilution method; format: functional
[2] = tested on: Staphylococcus aureus; assay: Antimicrobial activity against methicillin-resistant Staphylococcus aureus 7 assessed as inhibition of visible bacterial growth incubated for 18 hrs by broth-dilution method; format: functional
[3] = tested on: Staphylococcus aureus; assay: Antimicrobial activity against methicillin-resistant Staphylococcus aureus 5 assessed as inhibition of visible bacterial growth incubated for 18 hrs by broth-dilution method; format: functional
[4] = tested on: Pseudomonas aeruginosa; assay: Antimicrobial activity against multidrug-resistant Pseudomonas aeruginosa 124 assessed as inhibition of visible bacterial growth incubated for 18 hrs by broth-dilution method; format: functional
[5] = tested on: Bacillus subtilis; assay: Antimicrobial activity against Bacillus subtilis ATCC 23857 assessed as inhibition of visible bacterial growth incubated for 18 hrs by broth-dilution method; format: functional
[6] = tested on: Escherichia coli; assay: Antimicrobial activity against Escherichia coli ATCC 25922 assessed as inhibition of visible bacterial growth incubated for 18 hrs by broth-dilution method; format: functional
[7] = tested on: Staphylococcus aureus; assay: Antimicrobial activity against methicillin-resistant Staphylococcus aureus 3 assessed as inhibition of visible bacterial growth incubated for 18 hrs by broth-dilution method; format: functional
[8] = tested on: Staphylococcus aureus; assay: Antimicrobial activity against methicillin-resistant Staphylococcus aureus 1 assessed as inhibition of visible bacterial growth incubated for 18 hrs by broth-dilution method; format: functional
[9] = tested on: Pseudomonas aeruginosa; assay: Antibacterial activity against Pseudomonas aeruginosa ATCC 27853 infected in C57BL/6 mouse pneumonia model assessed as […] at 5 mg/kg, ip administered for 1 to 48 hrs and measured after 3 days by H and E staining based analysis; format: functional, organism-based; conditions: time 1-120 hrs
[10] = tested on: Salmonella typhimurium; assay: Antimicrobial activity against Salmonella typhimurium ATCC 14028 assessed as inhibition of visible bacterial growth incubated for 18 hrs by broth-dilution method; format: functional
[11] = tested on: Pseudomonas aeruginosa; assay: Antimicrobial activity against multidrug-resistant Pseudomonas aeruginosa 119 assessed as inhibition of visible bacterial growth incubated for 18 hrs by broth-dilution method; format: functional
[12] = tested on: Pseudomonas aeruginosa; assay: Antimicrobial activity against multidrug-resistant Pseudomonas aeruginosa 156 assessed as inhibition of visible bacterial growth incubated for 18 hrs by broth-dilution method; format: functional
[13] = tested on: Cell membrane; assay: Induction of cytoplasmic membrane depolarization in methicillin-resistant Staphylococcus aureus ATCC 33591 assessed as increase in fluorescence intensity at 4 times MIC by DiSC35 dye-based fluorescence assay
[14] = tested on: Staphylococcus aureus; assay: Antimicrobial activity against methicillin-resistant Staphylococcus aureus 9 assessed as inhibition of visible bacterial growth incubated for 18 hrs by broth-dilution method; format: functional
[15] = tested on: Staphylococcus epidermidis; assay: Antimicrobial activity against Staphylococcus epidermidis ATCC 12228 assessed as inhibition of visible bacterial growth incubated for 18 hrs by broth-dilution method; format: functional
[16] = tested on: Staphylococcus aureus; assay: Antimicrobial activity against Staphylococcus aureus ATCC 25923 assessed as inhibition of visible bacterial growth incubated for 18 hrs by broth-dilution method; format: functional
[17] = tested on: Pseudomonas aeruginosa; assay: Antimicrobial activity against multidrug-resistant Pseudomonas aeruginosa 050 assessed as inhibition of visible bacterial growth incubated for 18 hrs by broth-dilution method; format: functional
[18] = tested on: Staphylococcus aureus; assay: Antimicrobial activity against methicillin-resistant Staphylococcus aureus 10 assessed as inhibition of visible bacterial growth incubated for 18 hrs by broth-dilution method; format: functional
[19] = tested on: Pseudomonas aeruginosa; assay: Antimicrobial activity against multidrug-resistant Pseudomonas aeruginosa 125 assessed as inhibition of visible bacterial growth incubated for 18 hrs by broth-dilution method; format: functional
[20] = tested on: Staphylococcus aureus; assay: Antimicrobial activity against methicillin-resistant Staphylococcus aureus 4 assessed as inhibition of visible bacterial growth incubated for 18 hrs by broth-dilution method; format: functional
[21] = tested on: Pseudomonas aeruginosa; assay: Antimicrobial activity against multidrug-resistant Pseudomonas aeruginosa 061 assessed as inhibition of visible bacterial growth incubated for 18 hrs by broth-dilution method; format: functional
[22] = tested on: Acinetobacter baumannii; assay: Antimicrobial activity against Acinetobacter baumannii ATCC 19606 assessed as inhibition of visible bacterial growth incubated for 18 hrs by broth-dilution method; format: functional
[23] = tested on: Staphylococcus aureus; assay: Drug resistance, ratio of MIC for methicillin-resistant Staphylococcus aureus ATCC 33591 after 20 days exposure to MIC for methicillin-resistant Staphylococcus aureus ATCC 33591 during first exposure; format: functional, organism-based; conditions: time 20.0 day
[24] = tested on: Staphylococcus aureus; assay: Antimicrobial activity against methicillin-resistant Staphylococcus aureus ATCC 33591 assessed as inhibition of visible bacterial growth incubated for 18 hrs by broth-dilution method; format: functional
[25] = tested on: Pseudomonas aeruginosa; assay: Bactericidal activity against Pseudomonas aeruginosa ATCC 27853 assessed as reduction in viable bacteria at 4 times MIC measured for 30 min by time-kill assay; format: functional, organism-based
[26] = tested on: Pseudomonas aeruginosa; assay: Antimicrobial activity against multidrug-resistant Pseudomonas aeruginosa 085 assessed as inhibition of visible bacterial growth incubated for 18 hrs by broth-dilution method; format: functional
[27] = tested on: Pseudomonas aeruginosa; assay: Antibacterial activity against Pseudomonas aeruginosa ATCC 27853 infected in C57BL/6 mouse pneumonia model assessed as log reduction in bacterial load in lung at 5 mg/kg, ip administered for 1 to 48 hrs and measured after 3 days; format: functional; conditions: time 1-120 hrs
[28] = tested on: Staphylococcus aureus; assay: Antimicrobial activity against methicillin-resistant Staphylococcus aureus 6 assessed as inhibition of visible bacterial growth incubated for 18 hrs by broth-dilution method; format: functional
[29] = tested on: Staphylococcus aureus; assay: Antimicrobial activity against methicillin-resistant Staphylococcus aureus 8 assessed as inhibition of visible bacterial growth incubated for 18 hrs by broth-dilution method; format: functional
[30] = tested on: Pseudomonas aeruginosa; assay: Antimicrobial activity against multidrug-resistant Pseudomonas aeruginosa 073 assessed as inhibition of visible bacterial growth incubated for 18 hrs by broth-dilution method; format: functional
[31] = tested on: Cell membrane; assay: Induction of membrane depolarization in Pseudomonas aeruginosa ATCC 27853 assessed as increase in fluorescence intensity at 4 times MIC by DiSC35 dye-based fluorescence assay; format: cell membranes
[32] = tested on: Pseudomonas aeruginosa; assay: Antimicrobial activity against multidrug-resistant Pseudomonas aeruginosa 516 assessed as inhibition of visible bacterial growth incubated for 18 hrs by broth-dilution method; format: functional
[33] = tested on: Staphylococcus aureus; assay: Antimicrobial activity against methicillin-resistant Staphylococcus aureus 2 assessed as inhibition of visible bacterial growth incubated for 18 hrs by broth-dilution method; format: functional
[34] = tested on: Pseudomonas aeruginosa; assay: Antimicrobial activity against Pseudomonas aeruginosa ATCC 27853 assessed as inhibition of visible bacterial growth incubated for 18 hrs by broth-dilution method; format: functional
[35] = tested on: Staphylococcus aureus; assay: Antibacterial activity against methicillin-resistant Staphylococcus aureus ATCC 33591 infected in full-thickness wound BALB/c mouse model assessed as reduction in inflammatory infiltration at 1 mg/kg, ip administered for 1 to 48 hrs and measured after 3 days; format: functional, organism-based; conditions: time 1-120 hrs

Compound POLYMYXIN B has an MIC [1] of 1 mg/L, an MIC [2] of 16 mg/L and an MIC [3] of 16 mg/L. The MIC [4] was 1 mg/L, the MIC [5] was 8 mg/L and the MIC [6] was 1 mg/L. For the same compound, the MIC [7] was 8 mg/L, the MIC [8] was 8 mg/L and the Activity [9] was “inactive”. For the same compound, the MIC ([10]; Salmonella enterica subsp. enterica serovar Typhimurium) was 2 mg/L, the MIC [11] was 1 mg/L and the MIC [12] was 256 mg/L. For the same compound, the Activity [13] was “inactive”, the MIC [14] was 16 mg/L and the MIC [15] was 8 mg/L. It also gave an MIC [16] of 8 mg/L, an MIC [17] of 1 mg/L and an MIC [18] of 16 mg/L. For the same compound, the MIC [19] was 1 mg/L, the MIC [20] was 16 mg/L and the MIC [21] was 1 mg/L. For the same compound, the MIC [22] was 4 mg/L, the Ratio [23] was 8 and the MIC [24] was 16 mg/L. For the same compound, the Activity [25] was “Active”, the MIC [26] was 1 mg/L and the log(activity) [27] was 4.54. For the same compound, the MIC [28] was 8 mg/L, the MIC [29] was 16 mg/L and the MIC [30] was 1 mg/L. For the same compound, the Activity [31] was “inactive”, the MIC [32] was 1 mg/L and the MIC [33] was 8 mg/L. It also gave an MIC [34] of 1 mg/L.
In the case of CN[C@H](CC(C)C)C(=O)N[C@H]1C(=O)N[C@@H](CC(N)=O)C(=O)N[C@H]2C(=O)N[C@H]3C(=O)N[C@H](C(=O)N[C@H](C(=O)O)c4cc(O)cc(O)c4-c4cc3ccc4O)[C@H](O)c3ccc(c(Cl)c3)Oc3cc2cc(c3O[C@@H]2O[C@H](CO)[C@@H](O)[C@H](O)[C@H]2O[C@H]2C[C@](C)(N)[C@H](O)[C@H](C)O2)Oc2ccc(cc2Cl)[C@H]1O [VANCOMYCIN], the Activity [35] is reported as “Active”, the MIC [5] is reported as 1 mg/L (≈ 0.69 µM) and the MIC [6] is reported as 256 mg/L (≈ 177 µM). It also gave an MIC ([10]; Salmonella enterica) of 128 mg/L (≈ 88.3 µM), an MIC [22] of 32 mg/L (≈ 22.1 µM) and an MIC [34] of 256 mg/L (≈ 177 µM).
